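Tested at 5 concentrations; 48 h exposure; 96-well plates; endpoints linearly interpolated, else capped at highest concentration. GI50 is the concentration that inhibits growth by half.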 The source made the active and inactive calls. No stated cut-off is given here; in the data, active = GI50 up to about 1.1 µM and inactive = higher. Bounds are passed on as bounds.

Test systems include CAKI-1; COLO 205; EKVX; HCC 2998; HOP-92; K562; MCF7; MDA-MB-231; MOLT-4; NCI-H23; NCI-H522; OVCAR-4; OVCAR-5; SF-268; SK-MEL-28; SK-MEL-2; SK-OV-3; SW-620; IGROV-1; Hs-578T.
Common to all, as to experiment: NCI-60 cell line screen, 48 h

As for `NS(=O)(=O)c1nnc(NS(=O)(=O)C(F)(F)F)s1`, the GI50 in the assay with CAKI-1, with COLO 205, in the assay on EKVX, in the assay with HCC 2998, in the assay on HOP-92 and with K562 was > 100 µM (inactive) throughout. In addition, the GI50 in the assay with MCF7 is > 100 µM (inactive); in the assay with MDA-MB-231, > 100 µM (inactive); in the assay with MOLT-4, > 100 µM (inactive); with NCI-H23, 77.3 µM (inactive); with NCI-H522, > 100 µM (inactive); in the assay on OVCAR-4 it was > 100 µM (inactive). Further, the GI50 in the assay with OVCAR-5, with SF-268, in the assay with SK-MEL-28, in the assay with SK-MEL-2, in the assay with SK-OV-3 and in the assay with SW-620 was > 100 µM (inactive) throughout.
In the case of `c1ccc2sc(C3(N4CCCC4)CCCCCC3)cc2c1`, the GI50 with CAKI-1 is 20.9 µM (inactive); in the assay on COLO 205 it was 14 µM (inactive); in the assay with EKVX, 17.3 µM (inactive); with HCC 2998 it was 13.6 µM (inactive); in the assay on HOP-92, 12.6 µM (inactive); with IGROV-1, 19.1 µM (inactive). Moreover, the GI50 in the assay with K562 is 17.2 µM (inactive); in the assay on MCF7, 18.4 µM (inactive); in the assay on MDA-MB-231, 17.1 µM (inactive); in the assay on MOLT-4, 12.5 µM (inactive); in the assay with NCI-H23, 18 µM (inactive); with NCI-H522 it was 18.7 µM (inactive). Also, the GI50 in the assay on OVCAR-4 was 13.4 µM (inactive); in the assay with OVCAR-5, 11.7 µM (inactive); in the assay on SF-268, 13.5 µM (inactive); in the assay with SK-MEL-28, 20.4 µM (inactive); in the assay with SK-OV-3, 16.8 µM (inactive); in the assay with SW-620, 16.9 µM (inactive).
For `CC1(C)CC(=O)C2=C(C1)N(c1ccccc1)C1(O)C=CC(O)=C3C(=O)c4ccccc4C(=O)C321` (centres undefined), the GI50 with CAKI-1 is 26.2 µM (inactive); in the assay with COLO 205, 33.6 µM (inactive); in the assay with EKVX, 55.6 µM (inactive); in the assay on HCC 2998, 30.2 µM (inactive); in the assay on HOP-92, 24.1 µM (inactive); with IGROV-1, 26 µM (inactive). For the same compound, the GI50 in the assay on K562 was 14 µM (inactive); with MCF7, 27.7 µM (inactive); in the assay with MDA-MB-231 it was 34.4 µM (inactive); with MOLT-4 it was 12.5 µM (inactive); with NCI-H23, 24.6 µM (inactive); in the assay with NCI-H522 it was 20.3 µM (inactive). Further, the GI50 was 14.7 µM (inactive) in the assay on OVCAR-4; 42.8 µM (inactive) in the assay with OVCAR-5; 20.2 µM (inactive) in the assay on SF-268; 17.8 µM (inactive) with SK-MEL-28; 27 µM (inactive) with SK-MEL-2; 88.9 µM (inactive) with SK-OV-3.
For the compound `COc1ccc2c(c1)OCC1Cc3ccccc3OC21` (centres undefined), the GI50 in the assay with CAKI-1 is > 100 µM (inactive); with COLO 205, > 100 µM (inactive); in the assay on EKVX, 49.9 µM (inactive); in the assay with HCC 2998, > 100 µM (inactive); in the assay with HOP-92 it was > 100 µM (inactive); in the assay with IGROV-1, > 100 µM (inactive). Besides, the GI50 is > 100 µM (inactive) with K562; > 100 µM (inactive) in the assay with MCF7; > 100 µM (inactive) with MDA-MB-231; 54.1 µM (inactive) with MOLT-4; > 100 µM (inactive) with NCI-H23; > 100 µM (inactive) in the assay on NCI-H522. Also, the GI50 in the assay with OVCAR-5, in the assay on SF-268, in the assay on SK-MEL-2, in the assay with SK-OV-3 and in the assay on SW-620 was > 100 µM (inactive) throughout.
Turning to `C/C=C(C)/C=C/CC(C)CCC=C(C)C` (centres undefined), the GI50 in the assay on CAKI-1, in the assay on COLO 205, in the assay with EKVX, in the assay on HOP-92, in the assay on IGROV-1 and with K562 was > 100 µM (inactive) each time. Besides, the GI50 is > 100 µM (inactive) in the assay on MCF7; > 100 µM (inactive) with MDA-MB-231; > 100 µM (inactive) in the assay on MOLT-4; 92.9 µM (inactive) in the assay with OVCAR-4; > 100 µM (inactive) with OVCAR-5; > 100 µM (inactive) in the assay with SK-MEL-28. In addition, the GI50 in the assay with SK-MEL-2, in the assay on SK-OV-3 and with SW-620 was > 100 µM (inactive) in each case.
For `O=[N+]([O-])c1ccc(N/N=C2\C=CCCC2)c([N+](=O)[O-])c1`, the GI50 was > 100 µM (inactive) in the assay on CAKI-1; > 100 µM (inactive) in the assay on COLO 205; > 100 µM (inactive) in the assay on EKVX; 52.1 µM (inactive) with HOP-92; 27.3 µM (inactive) in the assay on Hs-578T; 73.1 µM (inactive) in the assay with IGROV-1. Moreover, the GI50 is > 100 µM (inactive) in the assay on K562; > 100 µM (inactive) in the assay on MCF7; > 10 µM (inactive) in the assay on MOLT-4; > 100 µM (inactive) in the assay on NCI-H23; > 100 µM (inactive) in the assay on NCI-H522; > 100 µM (inactive) in the assay with OVCAR-4. Further, the GI50 with OVCAR-5, in the assay with SF-268, in the assay on SK-MEL-28, in the assay with SK-MEL-2, in the assay with SK-OV-3 and with SW-620 was > 100 µM (inactive) each time.
Turning to `C=C1C(=O)OC2C1C(OC(=O)/C(C)=C\C)CC1(CO1)C1C(O)C=C(C)C21O` (centres undefined), the GI50 was 2.04 µM (inactive) with CAKI-1; 1.17 µM (inactive) in the assay on COLO 205; 12.8 µM (inactive) with EKVX; 4.63 µM (inactive) in the assay on HCC 2998; 10.7 µM (inactive) with HOP-92; 14.5 µM (inactive) in the assay on IGROV-1. Further, the GI50 with K562 was 4.72 µM (inactive); with MOLT-4, 2 µM (inactive); in the assay on NCI-H23 it was 7.19 µM (inactive); in the assay on NCI-H522, 0.942 µM (active); in the assay with OVCAR-4 it was 7.78 µM (inactive); with OVCAR-5, 19.7 µM (inactive). Moreover, the GI50 is 2.64 µM (inactive) in the assay with SF-268; 2.93 µM (inactive) in the assay with SK-MEL-28; 3.72 µM (inactive) in the assay with SK-MEL-2; 16.7 µM (inactive) with SK-OV-3; 1.58 µM (inactive) in the assay with SW-620.
Take `C[C@]12CCc3nn(-c4ccccc4)nc3C1CC[C@@H]1C2CC[C@]2(C)C(=O)CCC12` (some centres undefined): the GI50 with CAKI-1, with COLO 205, in the assay on EKVX, in the assay on HCC 2998, in the assay on HOP-92 and in the assay with IGROV-1 was > 100 µM (inactive) throughout. Besides, the GI50 in the assay on K562 is 54.3 µM (inactive); in the assay on MOLT-4, > 100 µM (inactive); in the assay on NCI-H23 it was > 100 µM (inactive); in the assay on NCI-H522, > 100 µM (inactive); with OVCAR-4, > 100 µM (inactive); in the assay on OVCAR-5, > 100 µM (inactive). Also, the GI50 in the assay with SF-268, in the assay with SK-MEL-28, with SK-MEL-2, with SK-OV-3 and in the assay with SW-620 was > 100 µM (inactive) throughout.
`Nc1c([N+](=O)[O-])nc(Cl)c2nncn12`: the GI50 in the assay on CAKI-1 is > 100 µM (inactive); in the assay on COLO 205, > 43 µM (inactive); with EKVX it was > 100 µM (inactive); in the assay with HCC 2998, > 100 µM (inactive); in the assay on HOP-92, > 100 µM (inactive); in the assay with IGROV-1, > 100 µM (inactive). Also, the GI50 with K562 is > 72.4 µM (inactive); in the assay with MOLT-4, > 100 µM (inactive); in the assay on NCI-H23 it was > 100 µM (inactive); with NCI-H522, > 74.6 µM (inactive); in the assay on OVCAR-4, > 100 µM (inactive); with OVCAR-5 it was > 100 µM (inactive). Besides, the GI50 was > 87.9 µM (inactive) in the assay with SF-268; > 100 µM (inactive) in the assay with SK-MEL-28; > 100 µM (inactive) with SK-MEL-2; > 100 µM (inactive) in the assay with SK-OV-3; > 100 µM (inactive) in the assay with SW-620.
As for `c1ccc2c(Cc3nnc4sc(SSc5nn6c(Cc7c[nH]c8ccccc78)nnc6s5)nn34)c[nH]c2c1`, the GI50 was 18.7 µM (inactive) in the assay on CAKI-1; 21.1 µM (inactive) with COLO 205; 23 µM (inactive) in the assay with EKVX; 16.7 µM (inactive) with HCC 2998; 31 µM (inactive) with HOP-92; 23.8 µM (inactive) with Hs-578T. For the same compound, the GI50 is 2.99 µM (inactive) in the assay with IGROV-1; 17.4 µM (inactive) in the assay on K562; 15.1 µM (inactive) in the assay on MCF7; 8.93 µM (inactive) in the assay on MOLT-4; 19.1 µM (inactive) with NCI-H23; 17.9 µM (inactive) in the assay on NCI-H522. Further, the GI50 in the assay on OVCAR-4 was 58.1 µM (inactive); in the assay with OVCAR-5, 26.2 µM (inactive); in the assay with SF-268, 21.8 µM (inactive); in the assay with SK-MEL-28 it was 33.5 µM (inactive); in the assay on SK-OV-3, 39.9 µM (inactive); in the assay on SW-620, 16.7 µM (inactive).
As for `CC1(C)OCC2OC3([C@H](O)CCO)OC(C)(C)OC3C2O1` (some centres undefined), the GI50 in the assay on CAKI-1, in the assay on COLO 205, with EKVX, in the assay with HCC 2998, in the assay with HOP-92 and with IGROV-1 was > 100 µM (inactive) in each case. Moreover, the GI50 in the assay on K562, with MCF7, with MDA-MB-231, with MOLT-4, with NCI-H23 and with OVCAR-4 was > 100 µM (inactive) each time. The GI50 in the assay with OVCAR-5, in the assay with SK-MEL-28, in the assay with SK-MEL-2 and in the assay with SW-620 was > 100 µM (inactive) each time.

The values are drawn from ChEMBL document CHEMBL1201862, “PubChem BioAssay data set” (2004).
